Holding throughout (assay type): functional, cell-based
The subject of assay [1] is NCI-H460. The experiment in a line: Cytotoxicity against human NCI-H460 cells assessed as reduction in cell viability after 48 hrs by CCK8 assay. As to conditions: NCI-H460, 48 h.
Assay [2] relates to PC-9. Kind of assay: Cytotoxicity against human PC-9 cells assessed as reduction in cell viability after 48 hrs by CCK8 assay. Conditions: PC-9, 48 h. In general terms: Formazan colour is commonly taken as a measure of viable cells.
For assay [3], the system named is NCI-H1650. Kind of assay: Cytotoxicity against human NCI-H1650 cells assessed as reduction in cell viability after 48 hrs by CCK8 assay. As to conditions: NCI-H1650, 48 h.
A short description of assay [4]: Cytotoxicity against human 95-D cells assessed as reduction in cell viability after 48 hrs by CCK8 assay.
The subject of assay [5] is A549. The experiment in a line: Cytotoxicity against human A549 cells assessed as reduction in cell viability after 48 hrs by CCK8 assay. As to conditions: A549, 48 h.

pIC50: −log10 of the molar value.

As a reminder, the pIC50 is the negative decadic logarithm of the IC50, by convention in mol/L. Regarding `C[C@@]12CC[C@@H](OC1=O)c1c2cc(O)c2c1C(=O)c1oc(CO)cc1C2=O`, the pIC50 in assay [1] is < 5.00; in assay [2], < 5.00; in assay [3] it was 5.80; in assay [4], 5.41; in assay [5], 5.32.

For the compound `Cc1cc2c(o1)C(=O)c1cc3c(c(O)c1C2=O)C(=O)CCCC3(C)C`, the pIC50 is < 5.00 in assay [1]; 5.09 in assay [2]; 5.27 in assay [3]; < 5.00 in assay [4]; 4.98 in assay [5].

As for `O=c1[nH]cc(F)c(=O)[nH]1` [FLUOROURACIL], the pIC50 in assay [1] is 5.00; in assay [2], < 5.00; in assay [3], < 5.00; in assay [4], < 5.00; in assay [5], < 5.00.
